Assay results reported in patent US10101331B2, “Methods of evaluating patients using E-cadherin or vimentin” (AGIOS PHARMACEUTICALS, INC, priority 2012, dated 2018).

Columns and labels:
Test in all cases: Lung cancer cell line panel screened for sensitivity to BPTES, 72 hr proliferation assay
Format in all cases: cell-based
[1] = test system: NCI-H1048
Description: (§1) Of these, 44 of the cell lines have been classified as non-small cell lung cancer (NSCLC). […] Four of the top 25 transcriptional/cellular pathways were related to the epithelial-mesenchymal transition (EMT) (ranks 1, 15, 23, 25 of FIG. 2). […] Low E-cadherin/high vimentin are well-defined markers of cells that have a mesenchymal phenotype as characterized for example, in any one of the following references: (Yauch et al., (2005) Cin Cancer Res 11:24; Savagner et al., (2010) Ann Oncol. 21(suppl 7): vii89; Thiery et al., (2002) Nature Reviews Cancer June vol 2:442).

[2] = test system: NCI-H2107
Description: as §1

[3] = test system: NCI-H1623
Description: as §1

[4] = test system: NCI-H2126
Description: as §1

[5] = test system: COR-L279
Description: as §1

[6] = test system: NCI-H460
Description: as §1

[7] = test system: COR-L23
Description: as §1

[8] = test system: NCI-H2009
Description: as §1

[9] = test system: NCI-H82
Description: as §1

[10] = test system: NCI-H209
Description: as §1

[11] = test system: NCI-H2122
Description: as §1

[12] = test system: NCI-H358
Description: as §1

[13] = test system: A427
Description: as §1

[14] = test system: NCI-H1395
Description: as §1

[15] = test system: NCI-H774
Description: as §1

[16] = test system: H2228
Description: as §1

[17] = test system: NCI-H1734
Description: as §1

[18] = test system: NCI-H838
Description: as §1

[19] = test system: NCI-H1975
Description: as §1

[20] = test system: NCI-H1436
Description: as §1

[21] = test system: NCI-H2171
Description: as §1

[22] = test system: NCI-H1694
Description: as §1

[23] = test system: NCI-H1618
Description: as §1

[24] = test system: NCI-H1155
Description: as §1

[25] = test system: NCI-H1563
Description: as §1

[26] = test system: NCI-H1993
Description: as §1

[27] = test system: NCI-H2405
Description: as §1

[28] = test system: NCI-H1092
Description: as §1

[29] = test system: NCI-H2081
Description: as §1

[30] = test system: NCI-H1355
Description: as §1

[31] = test system: NCI-H2347
Description: as §1

[32] = test system: NCI-H1568
Description: as §1

[33] = test system: NCI-H596
Description: as §1

[34] = test system: NCI-H2030
Description: as §1

[35] = test system: NCI-H1770
Description: as §1

[36] = test system: DMS-53; settings: DMS-53 cell line
Description: as §1

Compound: O=C(Cc1ccccc1)Nc1nnc(CCSCCc2nnc(NC(=O)Cc3ccccc3)s2)s1 [BPTES]
- μ/μmax [1]: 0.94
- μ/μmax [2]: 0.79
- μ/μmax [3]: 0.79
- μ/μmax [4]: 1.00
- μ/μmax [5]: 0.88
- Max Inh @ 10 uM (%) ([6]; NCI-H460, 10 uM): 18%
- Mu/max @10 uM ([6]; NCI-H460, 10 uM): 0.92
- μ/μmax @10 uM ([6]; NCI-H460, 10 uM): 0.92
- μ/μmax ([6]; NCI-H460 cell line): 0.92
- μ/μmax [7]: 0.96
- μ/μmax [8]: 0.96
- μ/μmax [9]: 0.90
- μ/μmax [10]: 0.64
- Max Inh @ 10 uM (%) ([11]; NCI-H2122, 10 uM): 58%
- Mu/max @10 uM ([11]; NCI-H2122, 10 uM): 0.56
- μ/μmax @10 uM ([11]; NCI-H2122, 10 uM): 0.56
- μ/μmax ([11]; NCI-H2122 cell line): 0.56
- sensitivity to BPTES ([12]; NCI-H358): relatively BPTES insensitive
- Max Inh @ 10 uM (%) ([12]; NCI-H358, 10 uM): 27%
- Mu/max @10 uM ([12]; NCI-H358, 10 uM): 0.66
- μ/μmax @10 uM ([12]; NCI-H358, 10 uM): 0.66
- μ/μmax ([12]; NCI-H358 cell line): 0.66
- Max Inh @ 10 uM (%) ([13]; A427, 10 uM): 86%
- Mu/max @10 uM ([13]; A427, 10 uM): −0.49
- μ/μmax @10 uM ([13]; A427, 10 uM): −0.49
- μ/μmax ([13]; A427 cell line): −0.49
- Max Inh @ 10 uM (%) ([14]; NCI-H1395, 10 uM): 16%
- Mu/max @10 uM ([14]; NCI-H1395, 10 uM): 0.61
- μ/μmax @10 uM ([14]; NCI-H1395, 10 uM): 0.61
- μ/μmax ([14]; NCI-H1395 cell line): 0.61
- μ/μmax [15]: 0.54
- μ/μmax [16]: 0.69
- μ/μmax [17]: −0.12
- sensitivity to BPTES ([18]; NCI-H838): moderate level of sensitivity
- Max Inh @ 10 uM (%) ([18]; NCI-H838, 10 uM): 37%
- Mu/max @10 uM ([18]; NCI-H838, 10 uM): 0.66
- μ/μmax @10 uM ([18]; NCI-H838, 10 uM): 0.66
- μ/μmax ([18]; NCI-H838 cell line): 0.66
- Max Inh @ 10 uM (%) ([19]; NCI-H1975, 10 uM): 18%
- Mu/max @10 uM ([19]; NCI-H1975, 10 uM): 0.75
- μ/μmax @10 uM ([19]; NCI-H1975, 10 uM): 0.75
- μ/μmax ([19]; NCI-H1975 cell line): 0.75
- μ/μmax [20]: 0.68
- μ/μmax [21]: 0.88
- μ/μmax [22]: 1.00
- μ/μmax [23]: 0.53
- μ/μmax [24]: 0.93
- Max Inh @ 10 uM (%) ([25]; NCI-H1563, 10 uM): 8%
- Mu/max @10 uM ([25]; NCI-H1563, 10 uM): 0.92
- μ/μmax @10 uM ([25]; NCI-H1563, 10 uM): 0.92
- μ/μmax ([25]; NCI-H1563 cell line): 0.92
- μ/μmax [26]: 0.89
- μ/μmax [27]: 0.92
- μ/μmax [28]: 0.77
- μ/μmax [29]: 1.00
- μ/μmax [30]: 0.78
- μ/μmax [31]: 0.90
- Max Inh @ 10 uM (%) ([32]; NCI-H1568, 10 uM): 50%
- Mu/max @10 uM ([32]; NCI-H1568, 10 uM): 0.25
- μ/μmax @10 uM ([32]; NCI-H1568, 10 uM): 0.25
- μ/μmax ([32]; NCI-H1568 cell line): 0.25
- Max Inh @ 10 uM (%) ([33]; NCI-H596, 10 uM): 13%
- Mu/max @10 uM ([33]; NCI-H596, 10 uM): 0.84
- μ/μmax @10 uM ([33]; NCI-H596, 10 uM): 0.84
- μ/μmax ([33]; NCI-H596 cell line): 0.84
- Max Inh @ 10 uM (%) ([34]; NCI-H2030, 10 uM): 87%
- Mu/max @10 uM ([34]; NCI-H2030, 10 uM): 0.37
- μ/μmax @10 uM ([34]; NCI-H2030, 10 uM): 0.37
- μ/μmax ([34]; NCI-H2030 cell line): 0.37
- μ/μmax [35]: 0.56
- μ/μmax [36]: 0.93
